Results from patent US5892018A, “DNA sequences encoding a brain sodium channel protein” (priority 1997, dated 1999).
Ends that are not written are not given here.

Target: T1, BNC1 (Homo sapiens, UniProt Q16515)
T1 construct: a 1539-bp open reading frame extending to the 3' stop codon; expressed in transfected cells; host or cells: Xenopus laevis oocytes, nuclear injection of BNC1 cDNA in pMT3
T1 sequence (Q16515 1-512 T495A): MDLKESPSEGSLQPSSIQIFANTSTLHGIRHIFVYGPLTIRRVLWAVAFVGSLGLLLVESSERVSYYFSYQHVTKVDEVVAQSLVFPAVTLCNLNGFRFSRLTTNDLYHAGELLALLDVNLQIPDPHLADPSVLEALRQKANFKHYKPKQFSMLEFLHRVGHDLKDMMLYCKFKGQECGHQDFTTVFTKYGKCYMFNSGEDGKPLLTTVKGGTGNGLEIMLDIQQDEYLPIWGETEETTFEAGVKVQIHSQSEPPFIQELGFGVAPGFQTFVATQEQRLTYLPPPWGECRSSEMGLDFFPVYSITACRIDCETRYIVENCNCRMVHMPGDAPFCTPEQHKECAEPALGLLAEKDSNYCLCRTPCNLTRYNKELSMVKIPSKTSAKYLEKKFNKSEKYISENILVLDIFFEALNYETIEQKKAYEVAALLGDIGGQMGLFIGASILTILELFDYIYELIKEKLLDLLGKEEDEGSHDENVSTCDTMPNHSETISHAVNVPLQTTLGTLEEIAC
Experiment: Two-electrode voltage clamp of Xenopus oocytes expressing BNC1
Type: cell-based
Details: for activation of BNC1 current by agonist peptide: peptide added to bathing solution at 1-30 μM
Description: Expression of BNC1 in Xenopus laevis Oocytes--BNC1 was expressed in Xenopus oocytes by nuclear injection of BNC1 cDNA cloned into pMT3 (0.2-0.3 ng). Control oocytes were injected with H2 O. α-, β-, and γhENaC (αβγhENaC) were expressed as described previously. Oocytes were maintained at 18° C. in modified Barth's solution, and current was measured by two-electrode voltage clamp 1 day after injection. During voltage clamp, oocytes were bathed in 116 mM NaCl, 2 mM KCl, 0.4 mM CaCl2, 1 mM Mg Cl2, 5 mM Hepes (pH 7.4 with NaOH). To determine ionic selectivity, NaCl was replaced with LiCl or KCl. Current-voltage relationships were determined by stepping from a holding potential of -60 mV to potentials between -100 and +40 mV for 1 second. Amiloride-sensitive current was obtained by subtracting current during exposure to a maximal concentration of amiloride (100 μM) from current prior to amiloride addition. Phe-Met-Arg-Phe-NH2 (FMRF-am-ide), Phe-Leu-Phe-Gln-Pro-Gln-Arg-Phe-NH2 (F-8-F-amide), and Ala-Gly-Glu-Gly-Leu-Ser-Ser-Pro-Phe-Trp-Ser-Leu-Ala-Ala-Pro-Gln-Arg-Phe-NH2 (A-18-F-amide) were obtained from Sigma and were added to the bathing solution at 1-30 μM.

Molecule | IC50 (BNC1 expressed in Xenopus oocytes, plotted as fraction of response to 100 μM amiloride, n=4 (FIG. 8), read-out: half-maximal inhibition of Na+ current) [µM] | inward current reversibly inhibited by amiloride (amiloride-sensitive current) (BNC1 in Xenopus oocytes, holding potential -60 mV, amiloride 100 μM, n=12 (FIG. 6)) [nA] | activation of BNC1 current by agonist peptide (BNC1 in Xenopus oocytes)
N=C(N)NC(=O)c1nc(Cl)c(N)nc1N [amiloride] | 0.147 ± 0.023 | 14.0±2.7 | –
Ala-Gly-Glu-Gly-Leu-Ser-Ser-Pro-Phe-Trp-Ser-Leu-Ala-Ala-Pro-Gln-Arg-Phe-NH2 (AGEGLSSPFWSLAAPQRF-NH2) [A-18-F-amide, related mammalian peptide, obtained from Sigma] | – | – | not activated
CC(C)C[C@H](NC(=O)[C@@H](N)Cc1ccccc1)C(=O)N[C@@H](Cc1ccccc1)C(=O)N[C@@H](CCC(N)=O)C(=O)N1CCC[C@H]1C(=O)N[C@@H](CCC(N)=O)C(=O)N[C@@H](CCCNC(=N)N)C(=O)N[C@@H](Cc1ccccc1)C(N)=O [F-8-F-amide, Phe-Leu-Phe-Gln-Pro-Gln-Arg-Phe-NH2] | – | – | not activated
